Non-standard residues stand in square brackets, D forms with d. Residues, ends and D or L forms follow the SMILES beside them.
tested on: spontaneous hypertensive rats (SHR); assay: Hypotensive activity in spontaneous hypertensive rats (Tail-Cuff method); format: in vivo, rat; conditions: 120 mg/kg intraperitoneally, maximum blood pressure before minus after administration ± S.E., p < 0.01 against saline control
Procedure: 10-week old spontaneous hypertensive rats (SHR) (produced BY Nihon Rat Co., Ltd.,.male., weight 240 to 280 g, 4 to 6 animals per 1 group) were used as test animals. L-Leu-L-Arg-L-Pro obtained as in Example 12 was dissolved in physiological saline and 120 mg in terms of the effective ingredient of the solution was intraperitoneally administered per kg of animal. As control physiological saline was intraperitoneally administered. Blood pressure was measured before the administration and at regular intervals of time after the administration by the Tail-Cuff method using a bloodless sphygmomanometer for rats and mice TK-350 (produced by Unicom Co., Ltd.)
The results were shown in Table 2 by (Maximum blood pressure value before the administration-Maximum blood pressure value after the administration) ± S.E.

SMILES | Lowering of blood pressure (mm Hg) 5 hours later [mm Hg]
CC(C)C[C@H](N)C(=O)N[C@@H](CCCNC(=N)N)C(=O)N1CCC[C@H]1C(=O)O [L--Leu--L--Arg--L--Pro, L-Leu-L-Arg-L-Pro] (H-Leu-Arg-Pro-OH) | 14 ± 5

molecular target: T1, angiotensin converting enzyme (Oryctolagus cuniculus, UniProt P12822); assay: ACE inhibition activity (hippuroylhistidylleucine substrate, hippuric acid absorbance at 228 nm); format: biochemical, rabbit; conditions: concentration at which the inhibition rate (E2) was found; not 50%
T1 construct: the supernatant was further purified with hydroxyapatite to obtain an angiotensin converting enzyme solution; from tissue; host or cells: rabbit lung (acetone powder)
T1 sequence (P12822 34-1310): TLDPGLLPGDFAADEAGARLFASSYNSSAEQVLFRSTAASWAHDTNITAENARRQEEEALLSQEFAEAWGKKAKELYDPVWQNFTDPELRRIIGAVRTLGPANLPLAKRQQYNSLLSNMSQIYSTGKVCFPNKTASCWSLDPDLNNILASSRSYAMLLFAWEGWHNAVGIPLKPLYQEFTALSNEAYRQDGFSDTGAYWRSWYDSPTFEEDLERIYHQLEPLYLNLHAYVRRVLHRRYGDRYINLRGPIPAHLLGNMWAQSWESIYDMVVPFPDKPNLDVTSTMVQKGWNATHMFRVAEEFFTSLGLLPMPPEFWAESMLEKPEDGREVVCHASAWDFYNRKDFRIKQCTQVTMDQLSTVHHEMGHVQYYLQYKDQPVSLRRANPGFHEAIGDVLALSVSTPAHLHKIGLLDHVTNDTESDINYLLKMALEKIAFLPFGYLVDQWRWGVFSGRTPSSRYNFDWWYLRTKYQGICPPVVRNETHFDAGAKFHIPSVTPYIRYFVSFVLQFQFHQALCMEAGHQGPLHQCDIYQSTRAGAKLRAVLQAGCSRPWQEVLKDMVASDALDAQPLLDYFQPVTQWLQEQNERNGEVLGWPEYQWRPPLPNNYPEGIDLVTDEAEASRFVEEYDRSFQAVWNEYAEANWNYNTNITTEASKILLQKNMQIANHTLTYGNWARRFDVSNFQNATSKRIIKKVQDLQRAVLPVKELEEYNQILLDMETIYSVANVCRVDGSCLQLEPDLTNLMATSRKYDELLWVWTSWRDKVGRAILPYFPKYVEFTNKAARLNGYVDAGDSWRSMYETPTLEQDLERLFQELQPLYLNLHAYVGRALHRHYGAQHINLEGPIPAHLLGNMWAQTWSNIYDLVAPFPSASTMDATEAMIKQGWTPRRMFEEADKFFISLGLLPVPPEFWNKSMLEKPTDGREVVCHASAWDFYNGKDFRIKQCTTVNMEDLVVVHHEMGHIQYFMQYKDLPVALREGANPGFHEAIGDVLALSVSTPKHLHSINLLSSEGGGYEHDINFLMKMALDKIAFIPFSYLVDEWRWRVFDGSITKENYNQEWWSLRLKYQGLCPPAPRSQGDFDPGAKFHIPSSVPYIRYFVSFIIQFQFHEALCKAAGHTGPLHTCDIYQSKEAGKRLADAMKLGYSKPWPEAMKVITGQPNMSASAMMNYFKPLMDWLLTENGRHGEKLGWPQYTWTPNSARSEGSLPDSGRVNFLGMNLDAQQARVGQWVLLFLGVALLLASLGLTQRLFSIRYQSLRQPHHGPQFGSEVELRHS
Procedure: The ACE inhibition activity of the thus obtained present oligopeptides was measured as follows. Namely, first, 5 g of rabbit lung acetone powder was dissolved in 50 ml of 0.1M sodium borate buffer (pH 8.3), the solution was centrifuged under the conditions of 40,000 G for 40 minutes, and the supernatant was further purified with hydroxyapatite to obtain an angiotensin converting enzyme solution having an enzyme activity of 1 unit/mg protein.
0.03 ml portions of aqueous solutions containing in various concentrations any one of the present oligopeptides was placed in test tubes, 0.25 ml portions of hippuroylhistidylleucine (final concentration 5 mM; containing 300 mM NaCl) were added thereto, 0.1 ml portions of the above angiotensin converting enzyme solution were added, and reactions were carried out at 37° C. for 30 minutes.
Plural of such an experiment were conducted and the inhibition rate was calculated by the following equation: [formula]

Concentration giving the inhibition rate [µM] | SMILES
45 | CC(C)C[C@@H](N)C(=O)N[C@@H](CCCNC(=N)N)C(=O)N1CCC[C@H]1C(=O)O [D--Leu--L--Arg--L--Pro, D-Leu-L-Arg-L-Pro] (H-[dL]-Arg-Pro-OH)
60 | CC(C)C[C@H](N)C(=O)NCC(=O)N1CCC[C@H]1C(=O)O [L--Leu--Gly--L--Pro, L-Leu-Gly-L-Pro] (H-Leu-Gly-Pro-OH)
182 | CC(C)C[C@H](N)C(=O)N[C@@H](CC(=O)O)C(=O)N1CCC[C@H]1C(=O)O [L--Leu--L--Asp--L--Pro, L-Leu-L-Asp-L-Pro] (H-Leu-Asp-Pro-OH)
24 | CC(C)C[C@H](N)C(=O)N[C@@H](CCC(=O)O)C(=O)N1CCC[C@H]1C(=O)O [L--Leu--L--Glu--L--Pro, L-Leu-L-Glu-L-Pro] (H-Leu-Glu-Pro-OH)
3.4 | CC(C)C[C@H](N)C(=O)N[C@H](C(=O)N1CCC[C@H]1C(=O)O)[C@@H](C)O [L--Leu--L--Thr--L--Pro, L-Leu-L-Thr-L-Pro] (H-Leu-Thr-Pro-OH)
12 | CC(C)C[C@H](N)C(=O)N[C@@H](Cc1ccc(O)cc1)C(=O)N1CCC[C@H]1C(=O)O [L--Leu--L--Tyr--L--Pro, L-Leu-L-Tyr-L-Pro] (H-Leu-Tyr-Pro-OH)

same assay, conditions: line prints 50% inhibition rate instead of the word IC50; read-out: Concentration giving the inhibition rate (50%)

IC50 [µM] | SMILES
1.4 | CC(C)C[C@H](N)C(=O)N[C@@H](C)C(=O)N1CCC[C@H]1C(=O)O [L--Leu--L--Ala--L--Pro, L-Leu-L-Ala-L-Pro] (H-Leu-Ala-Pro-OH)
80 | CC(C)C[C@H](N)C(=O)N[C@@H](Cc1c[nH]cn1)C(=O)N1CCC[C@H]1C(=O)O [L--Leu--L--His--L--Pro, L-Leu-L-His-L-Pro] (H-Leu-His-Pro-OH)
0.6 | CC(C)C[C@H](N)C(=O)N[C@@H](CCCCN)C(=O)N1CCC[C@H]1C(=O)O [L--Leu--L--Lys--L--Pro, L-Leu-L-Lys-L-Pro] (H-Leu-Lys-Pro-OH)

same assay, conditions: rabbit lung ACE, 5 mM hippuroylhistidylleucine, 37° C. 30 minutes; read-out: IC50

IC50 [µM] | SMILES
160 | CC[C@H](C)[C@H](N)C(=O)N[C@@H](CCCNC(=N)N)C(=O)N[C@@H](C)C(=O)N[C@@H](CCC(N)=O)C(=O)N[C@@H](CCC(N)=O)C(=O)O [L--Ile--Arg--L--Ala--L--Gln--L--Gln, L-Ile-L-Arg-L-Ala-L-Gln-L-Gln] (H-IRAQQ-OH)
6.4 | CC[C@H](C)[C@H](N)C(=O)N[C@@H](CCCNC(=N)N)C(=O)N[C@@H](C)C(=O)O [L--Ile--L--Arg--L--Ala, L-Ile-L-Arg-L-Ala] (H-Ile-Arg-Ala-OH)
13 | CC(C)C[C@H](N)C(=O)N[C@@H](C)C(=O)N[C@@H](C)C(=O)O [L--Leu--L--Ala--L--Ala, L-Leu-L-Ala-L-Ala] (H-Leu-Ala-Ala-OH)
0.27 | CC(C)C[C@H](N)C(=O)N[C@@H](CCCN=C(N)N)C(=O)N1CCC[C@H]1C(=O)O [L--Leu--L--Arg--L--Pro, L-Leu-L-Arg-L-Pro] (H-Leu-Arg-Pro-OH)
35 | CC(C)C[C@H](N)C(=O)N[C@@H](CC(N)=O)C(=O)N1CCC[C@H]1C(=O)O [L--Leu--L--Asn--L--Pro, L-Leu-L-Asn-L-Pro] (H-Leu-Asn-Pro-OH)
1.9 | CC(C)C[C@H](N)C(=O)N[C@@H](CCC(N)=O)C(=O)N1CCC[C@H]1C(=O)O [L--Leu--L--Gln--L-- Pro, L-Leu-L-Gln-L-Pro] (H-Leu-Gln-Pro-OH)
100 | CC(C)C[C@H](N)C(=O)N[C@@H](CCC(N)=O)C(=O)N[C@@H](CCC(N)=O)C(=O)O [L--Leu--L--Gln--L--Gln, L-Leu-L-Gln-L-Gln] (H-Leu-Gln-Gln-OH)
57 | CC(C)C[C@H](NC(=O)[C@@H](N)CC(C)C)C(=O)N1CCC[C@H]1C(=O)O [L--Leu--L--Leu--L--Pro, L-Leu-L-Leu-L-Pro] (H-Leu-Leu-Pro-OH)
1.7 | CC(C)C[C@H](N)C(=O)N[C@@H](CO)C(=O)N1CCC[C@H]1C(=O)O [L--Leu--L--Ser--L--Pro, L-Leu-L-Ser-L-Pro] (H-Leu-Ser-Pro-OH)
210 | CC(C)C[C@H](NC(=O)[C@@H](N)Cc1ccccc1)C(=O)N1CCC[C@H]1C(=O)O [L--Phe--L--Leu--L--Pro, L-Phe-L-Leu-L-Pro] (H-Phe-Leu-Pro-OH)
25 | N[C@@H](Cc1ccccc1)C(=O)N[C@@H](Cc1ccc(O)cc1)C(=O)O [L--Phe--L--Tyr, L-Phe-L-Tyr] (H-Phe-Tyr-OH)
13 | CC(C)[C@H](N)C(=O)N[C@@H](C)C(=O)N[C@@H](C)C(=O)O [L--Val--L--Ala--L--Ala, L-Val-L-Ala-L-Ala] (H-Val-Ala-Ala-OH)
16 | CC(C)[C@H](N)C(=O)N[C@@H](C)C(=O)N[C@@H](Cc1ccc(O)cc1)C(=O)O [L--Val--L--Ala--L--Tyr, L-Val-L-Ala-L-Tyr] (H-Val-Ala-Tyr-OH)
10 | CC(C)[C@H](N)C(=O)N[C@@H](CO)C(=O)N1CCC[C@H]1C(=O)O [L--Val--L--Ser--Ser--L--Pro, L-Val-L-Ser-L-Pro] (H-Val-Ser-Pro-OH; N-terminus and C-terminus assumed)

Source: patent US5238921A, “Oligopeptide, angiotensin converting enzyme inhibitors, hypotensive agent, and method for treatment of hypertension” (Agency of Industrial Science and Technology, priority 1990, dated 1993)
